Marks after values point to notes of the source that are not given here.
Columns and labels:
Format in all cases: in vivo
SD rats [1] = assay: Effect on an IBS model (1): wrap-restraint stress, weight of fecal pellets, subcutaneous administration; conditions: 3 mg/kg subcutaneously 30 minutes before wrap-restraint stress, weight of fecal pellets in one hour, male SD rats
Experimental: (§1) Six-week-old male SD rats, non-fasted, were used in groups of 8 individuals. In accordance with the method of Williams et al. (Gastroenterology, 1988; 94:611-621), animals in the control group and treatment groups were loaded with a wrap-restraint stress while those in the normal group were not loaded and weight (g) of fecal pellets in the subsequent one-hour period was determined. In the treatment groups, a predetermined dose of the corresponding test drug was administered subcutaneously 30 minutes before stress loading. The inhibition rate (%) was calculated by means of the following equation. Inhibition rate = [(C-D)/(C-N)] x 100 [formula] where C represents the weight of the fecal pellets in the control group, D represents the weight of the fecal pellets in the treatment group, and N represents the weight of the fecal pellets in the normal group. Statistical significance of the treatment group versus the control group was tested by Dunnett's multiple comparison.

SD rats [2] = assay: Effect on an IBS model (2): wrap-restraint stress, weight of fecal pellets, oral administration; conditions: for Inhibition (%) vs. control: weight of fecal pellets in one hour, male SD rats; for defecation accelerated by stress: result in words, summary of Test Examples 2 and 3, oral dose levels 10 and 30 mg/kg
Experimental: as §1, with “(g) of the fecal pellets” for “(g) of fecal pellets”, “was administered orally 60 minutes before” for “was administered subcutaneously 30 minutes before”, “stress loading. As reference control drugs, N-methyl-N-[(2RS,11bSR)-1,3,4,6,7,11b-hexahydro-2H-benzo[a]quinolizin-2-yl]propanesulfonamide hydrochloride (hereinafter referred to as Compound A) and N-(2-methanesulfonamidoethyl)-N-[(2RS,11bSR)-1,3,4,6,7,11b-hexahydro-2H-benzo[a]quinolizin-2-yl]benzenesulfonamide hydrochloride (hereinafter referred to as compound B), both of which are described in Japanese Laid-open S62-67031 as having gastrointestinal peristalsis-modulating activity were used. The inhibition” for “stress loading. The inhibition”

SD rats [3] = assay: Effect on an IBS model (3): water avoidance stress, number of fecal pellets, oral administration; conditions: number of fecal pellets in one hour, male SD rats
Experimental: Six-week-old male SD rats were used in groups of 8 individuals. In accordance with the method of Enck et al. (Gut, 1989; 30:455-459), animals in the control group and treatment groups were loaded with water avoidance stress, while those in the normal groups were not loaded and the number of fecal pellets during the subsequent one-hour period was determined. In the treatment groups, a predetermined dose of the corresponding test drug was administered orally 60 minutes before stress loading. As reference control drugs, Compound A and Compound B mentioned above were used. The inhibition rate (%) was calculated by means of the following equation. Inhibition rate (%) = [(NC-ND)/(NC-NN)] x 100 [formula] where NC represents the number of the fecal pellets in the control group, ND represents the number of the fecal pellets in the treatment group, and NN represents the number of the fecal pellets in the normal group. Statistical significance of the treatment group versus the control group was tested by Dunnett's multiple comparison.

ddY mice = assay: Acute toxicity test; conditions: fasted male ddY mice, deaths during one week
Experimental: Six-week-old male ddY mice were used in groups of 5 individuals. The animals were fasted from the previous day (16-18 hours before the experiment) and a predetermined dose of the compound of the invention was administered orally. The number of deaths during the subsequent one-week period was investigated.

[4] = 10 mg/kg orally 60 minutes before wrap-restraint stress, hydrochloride
[5] = 10 mg/kg orally 60 minutes before wrap-restraint stress
[6] = 30 mg/kg orally 60 minutes before wrap-restraint stress
[7] = 30 mg/kg orally 60 minutes before water avoidance stress

Question: `COc1ccc2c(c1)CCN1CC[C@@H](N(C)S(C)(=O)=O)C[C@@H]21.Cl` [Compound No. 18, N-Methyl-N-[(2R,11bS)-9-methoxy-1,3,4,6,7,11b-hexahydro-2H-benzo[a]quinolizin-2-yl]methanesulfonamide hydrochloride] was tested. Which “Inhibition (%) vs. control” value (SD rats [1]; hydrochloride) did it give?
Answer: 96.6** %

Question: And the “Inhibition (%) vs. control” value (SD rats [2]; [4])?
Answer: 91.1** %

Question: And the “Inhibition (%) vs. control” value (SD rats [3]; 3 mg/kg orally 60 minutes before water avoidance stress)?
Answer: 72.4* %

Question: And the “Inhibition (%) vs. control” value (SD rats [3]; 10 mg/kg orally 60 minutes before water avoidance stress)?
Answer: 82.9** %

Question: What about the Dead/Total (ddY mice; 250 mg/kg orally) of the same compound?
Answer: 0/5

Question: How did the “Inhibition (%) vs. control” value (SD rats [1]) turn out when `COc1ccc(S(=O)(=O)N(C)[C@@H]2CCN3CCc4cc(OC)ccc4[C@@H]3C2)cc1.Cl` (racemic) [Compound No. 6, N-Methyl-N-[(2RS,11bSR)-9-methoxy-1,3,4,6,7,11b-hexahydro-2H-benzo[a]quinolizin-2-yl]-4-methoxybenzenesulfonamide hydrochloride] was run?
Answer: 86.2** %

Question: What about the Dead/Total (ddY mice; 100 mg/kg orally) of the same compound?
Answer: 0/5

Question: What does the source list for `CCN([C@@H]1CCN2CCc3cc(OC)ccc3[C@@H]2C1)S(C)(=O)=O.Cl` [Compound No. 21, N-Ethyl-N-[(2R,11bS)-9-methoxy-1,3,4,6,7,11b-hexahydro-2H-benzo[a]quinolizin-2-yl]methanesulfonamide hydrochloride]?
Answer: Inhibition (%) vs. control (SD rats [2]; [5]): 64.6** %; Inhibition (%) vs. control (SD rats [2]; [6]): 92.6** %; Dead/Total (ddY mice; 250 mg/kg orally): 0/5

Question: For `CCS(=O)(=O)N(C)[C@@H]1CCN2CCc3cc(OC)ccc3[C@@H]2C1.Cl` [Compound No. 20, N-Methyl-N-[(2R,11bS)-9-methoxy-1,3,4,6,7,11b-hexahydro-2H-benzo[a]quinolizin-2-yl]ethanesulfonamide hydrochloride], which “Inhibition (%) vs. control” value (SD rats [2]; [5]) is on record?
Answer: 69.4** %

Question: What about the “Inhibition (%) vs. control” value (SD rats [2]; [6]) of the same compound?
Answer: 88.9** %

Question: `CCCS(=O)(=O)N(C)[C@@H]1CCN2CCc3ccccc3[C@@H]2C1.Cl` (racemic) [Compound A, N-methyl-N-[(2RS,11bSR)-1,3,4,6,7,11b-hexahydro-2H-benzo[a]quinolizin-2-yl]propanesulfonamide hydrochloride, reference compound] was tested. Which “Inhibition (%) vs. control” value (SD rats [2]; [5]) did it give?
Answer: -1.2%

Question: And the “Inhibition (%) vs. control” value (SD rats [2]; [6])?
Answer: 1.4%

Question: And the “defecation accelerated by stress” value (SD rats [2])?
Answer: did not inhibit defecation accelerated by stress

Question: And the “Inhibition (%) vs. control” value (SD rats [3]; [7])?
Answer: -20.7%

Question: Which “Inhibition (%) vs. control” value (SD rats [1]) does the source give for `COc1ccc2c(c1)CCN1CC[C@@H](N(C)S(=O)(=O)c3ccccc3)C[C@@H]21.Cl` (racemic) [Compound No. 7, N-methyl-N-[(2RS,11bSR)-9-methoxy-1,3,4,6,7,11b-hexahydro-2H-benzo[a]quinolizin-2-yl]benzenesulfonamide hydrochloride] here?
Answer: 76.6** %

Question: `COc1ccc2c(c1)CCN1CC[C@@H](N(C)S(C)(=O)=O)C[C@@H]21.Cl` (racemic) [Compound No. 1, N-Methyl-N-[(2RS,11bSR)-9-methoxy-1,3,4,6,7,11b-hexahydro-2H-benzo[a]quinolizin-2-yl]methanesulfonamide hydrochloride] was tested. Which “Inhibition (%) vs. control” value (SD rats [1]; hydrochloride) did it give?
Answer: 97.7** %

Question: What about the “Inhibition (%) vs. control” value (SD rats [2]; [4]) of the same compound?
Answer: 53.2* %

Question: What about the “Inhibition (%) vs. control” value (SD rats [2]; [6]) of the same compound?
Answer: 96.6** %

Question: What about the “Inhibition (%) vs. control” value (SD rats [3]; [7]) of the same compound?
Answer: 81.8* %

Question: What about the Dead/Total (ddY mice; 100 mg/kg orally) of the same compound?
Answer: 0/5

Question: How did the “Inhibition (%) vs. control” value (SD rats [1]) turn out when `COc1ccc2c(c1)CCN1CC[C@@H](N(C)S(=O)(=O)c3ccc(F)cc3)C[C@@H]21.Cl` (racemic) [Compound No. 13, N-methyl-N-[(2RS,11bSR)-9-methoxy-1,3,4,6,7,11b-hexahydro-2H-benzo[a]quinolizin-2-yl]-4-fluorobenzenesulfonamide hydrochloride] was run?
Answer: 72.4** %

Question: For `COc1ccc2c(c1)CCN1CC[C@@H](N(C)S(=O)(=O)c3cc(OC)ccc3OC)C[C@@H]21.Cl` (racemic) [Compound No. 14, N-methyl-N-[(2RS,11bSR)-9-methoxy-1,3,4,6,7,11b-hexahydro-2H-benzo[a]quinolizin-2-yl]-2,5-dimethoxybenzenesulfonamide hydrochloride], which “Inhibition (%) vs. control” value (SD rats [1]) is on record?
Answer: 75.6** %

Question: For `COc1ccc2c(c1)CCN1CC[C@@H](N(C)S(=O)(=O)N(C)C)C[C@@H]21.Cl` (racemic) [Compound No. 16, N,N-Dimethyl-N'-[(2RS-11bSR)-9-methoxy-1,3,4,6,7,11b-hexahydro-2H-benzo[a]quinolizin-2-yl]-N'-methylsulfamide hydrochloride], which “Inhibition (%) vs. control” value (SD rats [2]; [5]) is on record?
Answer: 73.3** %

Question: What about the “Inhibition (%) vs. control” value (SD rats [2]; [6]) of the same compound?
Answer: 91.7** %

Question: What about the Dead/Total (ddY mice; 300 mg/kg orally) of the same compound?
Answer: 0/5

Question: How did the “Inhibition (%) vs. control” value (SD rats [2]; [5]) turn out when `CS(=O)(=O)NCCN([C@@H]1CCN2CCc3ccccc3[C@@H]2C1)S(=O)(=O)c1ccccc1.Cl` (racemic) [Compound B, N-(2-methanesulfonamidoethyl)-N-[(2RS,11bSR)-1,3,4,6,7,11b-hexahydro-2H-benzo[a]quinolizin-2-yl]benzenesulfonamide hydrochloride, reference compound] was run?
Answer: -4.7%

Question: What about the “Inhibition (%) vs. control” value (SD rats [2]; [6]) of the same compound?
Answer: -30.0%

Question: And the “defecation accelerated by stress” value (SD rats [2])?
Answer: did not inhibit defecation accelerated by stress

Question: What about the “Inhibition (%) vs. control” value (SD rats [3]; [7]) of the same compound?
Answer: -58.3%
